# Assay results as given in patent US9193884B2, “Ink composition” (Hewlett-Packard Development Company, L.P., priority 2011, dated 2015).
# How the values were obtained:
# [1] = limiting area and limiting radius of fatty acids; type: physicochemical
# [2] = cited from earlier work
# [3] = solubility of lithium fatty acid salts; type: physicochemical
Compound,Limiting radius [1],pKa [2],solubility [3]
"CCCCCCCC/C=C/CCCCCCCC(=O)O [Elaidic, elaidic acid]",3.24 Å,9.95,–
"CCCCC/C=C\C/C=C\CCCCCCCC(=O)O [Linoleic, linoleic acid]",3.91 Å,–,–
"CCCCCCCCCCCC(=O)[O-].[Li+] [dodecanoate, lithium dodecanoate]",–,–,higher solubility than that of oleic acid

# Now from value to molecule, other results behind:
Limiting radius [1],Compound,pKa [2],solubility [3]
3.61 Å,"CCCCCCCC/C=C\CCCCCCCC(=O)O [Oleic, oleic acid]",9.85,–
2.52 Å,"CCCCCCCCCCCCCCCCCC(=O)O [Stearic, stearic acid]",–,–
